Laboratory results from US9938261B2, “Heterocyclic compounds and methods of use thereof” (AMBIT BIOSCIENCES CORPORATION, priority 2011, dated 2018).
Where two headings read alike, the source gives them in different places.

What was measured:
FLT3 = target: T1, FLT3 (Homo sapiens, UniProt P36888); assay: Competition binding assay, FLT3 Kd
T1 construct: made in house
T1 sequence (P36888 27-993): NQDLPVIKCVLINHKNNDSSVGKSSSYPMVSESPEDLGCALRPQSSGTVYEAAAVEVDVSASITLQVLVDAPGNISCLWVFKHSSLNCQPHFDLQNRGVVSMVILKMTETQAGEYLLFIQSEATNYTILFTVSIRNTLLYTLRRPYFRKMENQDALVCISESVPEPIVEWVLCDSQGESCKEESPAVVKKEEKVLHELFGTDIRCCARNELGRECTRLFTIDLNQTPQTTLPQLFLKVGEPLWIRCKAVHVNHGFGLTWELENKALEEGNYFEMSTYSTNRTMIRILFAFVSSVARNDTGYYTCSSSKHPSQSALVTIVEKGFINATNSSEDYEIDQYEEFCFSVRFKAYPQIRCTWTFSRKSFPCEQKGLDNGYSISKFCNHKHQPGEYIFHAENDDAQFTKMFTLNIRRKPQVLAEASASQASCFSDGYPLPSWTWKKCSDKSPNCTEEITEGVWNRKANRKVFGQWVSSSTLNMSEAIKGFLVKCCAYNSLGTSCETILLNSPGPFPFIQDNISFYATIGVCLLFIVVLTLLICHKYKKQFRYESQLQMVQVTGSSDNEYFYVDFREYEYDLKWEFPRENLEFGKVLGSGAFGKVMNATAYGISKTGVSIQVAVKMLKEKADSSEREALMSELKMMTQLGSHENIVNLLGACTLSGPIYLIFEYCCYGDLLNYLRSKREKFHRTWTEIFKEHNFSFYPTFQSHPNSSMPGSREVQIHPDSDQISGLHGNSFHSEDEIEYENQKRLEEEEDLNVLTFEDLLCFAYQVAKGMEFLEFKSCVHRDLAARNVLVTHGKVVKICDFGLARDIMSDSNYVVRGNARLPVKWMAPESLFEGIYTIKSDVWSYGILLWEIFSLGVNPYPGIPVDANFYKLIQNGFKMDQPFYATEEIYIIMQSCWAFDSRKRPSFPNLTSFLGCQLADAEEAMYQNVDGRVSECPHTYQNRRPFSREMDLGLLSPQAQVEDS
Method in brief: (§1)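 Kd values came from eleven-point threefold dilutions of compound, measured by qPCR of kinase eluted from affinity-ligand beads after 1 h equilibrium binding at room temperature. Kinase was either T7-phage fused or HEK-293-expressed with a DNA tag.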

KIT = target: T2, KIT (Homo sapiens, UniProt P10721); assay: Competition binding assay, KIT Kd
T2 construct: made in house
Method in brief: as §1

CSF1R [1] = target: T3, CSF1R (Homo sapiens, UniProt P07333); assay: HEK293 CSF1R phosphorylation MSD assay; type: cell-based; parameters: expressed in transfected cells; host or cells: HEK293; conditions: read-out: HEK293 pCSF1R M-CSF MSD:IC50
Method in brief: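 HEK293 cells expressing CSF1R-FKBP were pretreated 2 h at 37° C with 9 half-log concentrations of compound (0.5% DMSO final), then stimulated 5 min with 50 ng/mL human M-CSF. Lysates captured on biotin-FK506 plates; phosphotyrosine detected by MSD electrochemiluminescence. IC50 versus DMSO, averaged from duplicate plates.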

CSF1R [2] = target: T3, CSF1R; assay: Competition binding assay, CSF1R Kd; parameters: made in house
Method in brief: as §1

PDGFRβ = target: T4, PDGFRβ (Homo sapiens, UniProt P09619); assay: Competition binding assay, PDGFRβ Kd
T4 construct: made in house
Method in brief: as §1

M-NFS-60 cells = assay: M-NFS-60 cell proliferation assay (Alamar Blue); type: cell-based, mouse; conditions: Mus musculus, read-out: CSF1R M-NFS-60 CTB:IC50
Method in brief: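 Mouse M-NFS-60 cells growing on 20 ng/mL M-CSF in RPMI/10% FBS were exposed to compounds (9 half-log concentrations, 0.5% DMSO) for 72 h at 37 °C. Viability read by Alamar Blue fluorescence (ex 560/em 590 nm, 3 h). IC50 = 50% proliferation inhibition versus control, mean of duplicates.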

[3] = 2 h compound, human M-CSF 50 ng/mL for 5 min
[4] = 72 hours incubation, M-CSF 20 ng/mL

T4 sequence (P09619 33-1106): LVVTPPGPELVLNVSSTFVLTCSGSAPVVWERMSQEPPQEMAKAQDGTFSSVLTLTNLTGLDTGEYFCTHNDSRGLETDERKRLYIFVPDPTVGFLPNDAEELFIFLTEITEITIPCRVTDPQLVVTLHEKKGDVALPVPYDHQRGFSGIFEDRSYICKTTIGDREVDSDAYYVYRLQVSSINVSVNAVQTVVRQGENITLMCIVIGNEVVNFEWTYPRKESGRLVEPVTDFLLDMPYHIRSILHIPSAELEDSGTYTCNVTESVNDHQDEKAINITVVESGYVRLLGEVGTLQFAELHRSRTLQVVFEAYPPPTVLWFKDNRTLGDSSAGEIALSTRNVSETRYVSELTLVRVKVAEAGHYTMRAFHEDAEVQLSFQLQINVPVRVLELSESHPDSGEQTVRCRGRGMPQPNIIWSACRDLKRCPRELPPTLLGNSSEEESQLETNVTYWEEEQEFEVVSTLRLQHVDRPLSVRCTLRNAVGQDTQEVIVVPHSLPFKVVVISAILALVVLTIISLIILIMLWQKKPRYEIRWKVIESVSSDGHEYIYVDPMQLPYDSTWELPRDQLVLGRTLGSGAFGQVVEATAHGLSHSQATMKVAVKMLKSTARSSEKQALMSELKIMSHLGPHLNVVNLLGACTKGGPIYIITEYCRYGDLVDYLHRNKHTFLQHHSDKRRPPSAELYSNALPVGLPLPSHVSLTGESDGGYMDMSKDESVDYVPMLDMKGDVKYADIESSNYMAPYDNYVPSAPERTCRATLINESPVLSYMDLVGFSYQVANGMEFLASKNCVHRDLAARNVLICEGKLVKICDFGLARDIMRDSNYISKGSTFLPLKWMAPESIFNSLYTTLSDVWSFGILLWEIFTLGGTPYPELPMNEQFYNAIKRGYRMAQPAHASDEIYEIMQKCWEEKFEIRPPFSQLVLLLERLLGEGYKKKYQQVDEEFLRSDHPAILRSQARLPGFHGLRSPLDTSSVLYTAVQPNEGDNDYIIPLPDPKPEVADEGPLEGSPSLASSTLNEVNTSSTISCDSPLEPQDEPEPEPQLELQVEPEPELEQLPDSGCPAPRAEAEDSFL
T3 sequence (P07333 20-972): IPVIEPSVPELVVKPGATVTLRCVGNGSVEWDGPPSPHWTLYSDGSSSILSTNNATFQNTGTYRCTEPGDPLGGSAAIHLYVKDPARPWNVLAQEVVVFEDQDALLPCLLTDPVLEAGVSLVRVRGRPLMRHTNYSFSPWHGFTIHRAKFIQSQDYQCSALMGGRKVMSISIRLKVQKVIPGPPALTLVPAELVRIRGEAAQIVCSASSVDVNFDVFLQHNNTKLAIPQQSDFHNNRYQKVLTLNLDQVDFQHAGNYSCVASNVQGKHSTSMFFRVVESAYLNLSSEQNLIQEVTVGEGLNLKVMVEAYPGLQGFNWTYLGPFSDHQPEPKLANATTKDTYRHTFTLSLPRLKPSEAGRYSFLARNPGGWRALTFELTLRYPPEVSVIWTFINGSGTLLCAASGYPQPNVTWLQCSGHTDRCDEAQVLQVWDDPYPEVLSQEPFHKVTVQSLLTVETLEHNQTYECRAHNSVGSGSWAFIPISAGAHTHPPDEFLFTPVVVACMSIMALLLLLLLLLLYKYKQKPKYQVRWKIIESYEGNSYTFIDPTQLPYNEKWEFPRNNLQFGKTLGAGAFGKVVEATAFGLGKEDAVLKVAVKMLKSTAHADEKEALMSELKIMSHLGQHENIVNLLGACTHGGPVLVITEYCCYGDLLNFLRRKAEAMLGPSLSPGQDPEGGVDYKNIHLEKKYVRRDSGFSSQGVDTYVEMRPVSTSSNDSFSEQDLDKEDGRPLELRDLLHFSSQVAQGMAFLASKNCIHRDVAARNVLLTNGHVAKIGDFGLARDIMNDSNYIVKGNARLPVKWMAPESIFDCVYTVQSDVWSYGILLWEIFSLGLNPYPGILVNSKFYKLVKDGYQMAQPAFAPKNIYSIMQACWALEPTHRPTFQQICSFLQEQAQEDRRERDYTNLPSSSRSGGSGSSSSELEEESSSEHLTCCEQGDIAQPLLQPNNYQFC
T2 sequence (P10721 26-976): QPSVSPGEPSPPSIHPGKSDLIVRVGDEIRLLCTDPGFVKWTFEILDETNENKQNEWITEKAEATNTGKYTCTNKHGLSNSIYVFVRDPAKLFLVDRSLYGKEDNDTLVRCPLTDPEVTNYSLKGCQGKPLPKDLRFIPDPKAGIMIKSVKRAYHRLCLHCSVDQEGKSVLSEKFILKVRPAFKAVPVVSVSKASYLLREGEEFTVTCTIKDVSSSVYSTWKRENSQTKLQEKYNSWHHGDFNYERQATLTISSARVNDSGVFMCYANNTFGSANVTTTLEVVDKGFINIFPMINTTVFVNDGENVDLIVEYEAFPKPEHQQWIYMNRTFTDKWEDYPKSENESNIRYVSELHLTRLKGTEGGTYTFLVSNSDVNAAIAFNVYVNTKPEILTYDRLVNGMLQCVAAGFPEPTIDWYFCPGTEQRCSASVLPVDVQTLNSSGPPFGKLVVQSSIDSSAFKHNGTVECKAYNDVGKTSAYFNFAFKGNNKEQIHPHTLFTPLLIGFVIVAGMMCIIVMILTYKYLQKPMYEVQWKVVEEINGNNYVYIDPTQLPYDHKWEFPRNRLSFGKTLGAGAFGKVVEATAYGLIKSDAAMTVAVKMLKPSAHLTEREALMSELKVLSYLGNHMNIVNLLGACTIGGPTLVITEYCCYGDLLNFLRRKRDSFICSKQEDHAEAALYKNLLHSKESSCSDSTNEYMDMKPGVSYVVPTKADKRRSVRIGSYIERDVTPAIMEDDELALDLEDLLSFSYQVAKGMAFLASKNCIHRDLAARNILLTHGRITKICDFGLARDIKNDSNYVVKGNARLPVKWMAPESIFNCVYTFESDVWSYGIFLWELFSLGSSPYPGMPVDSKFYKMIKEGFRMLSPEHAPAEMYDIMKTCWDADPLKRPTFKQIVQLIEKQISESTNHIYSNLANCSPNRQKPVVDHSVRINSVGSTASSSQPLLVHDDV

Structure (SMILES): COc1ccccc1Nc1nc2ccc(Cn3cnc4cc(F)cnc43)cc2s1 [Example 197, 6-((6-fluoro-3H-imidazo[4,5-b]pyridin-3-yl)methyl)-N-(2-methoxyphenyl)benzo[d]thiazol-2-amine]
- Kd (FLT3; competition binding): > 5 µM
- Kd (KIT; competition binding): 0.1 to 0.5 µM
- IC50 (CSF1R [1]; HEK293 cells, M-CSF stimulated CSF1R phosphorylation, MSD): > 0.5 µM
- Kd (CSF1R [2]; competition binding): 0.005 to 0.02 µM
- Kd (PDGFRβ; competition binding): 0.05 to 0.5 µM
- IC50 (M-NFS-60 cells; M-NFS-60 cell proliferation): 0.4 to 1.5 µM

Structure (SMILES): COc1cc2ncn(Cc3ccc4nc(NCc5ccccn5)sc4c3)c2cc1OC [Example 9, 6-((5,6-dimethoxy-1H-benzo[d]imidazol-1-yl)methyl)-N-(pyridin-2-ylmethyl)benzo[d]thiazol-2-amine]
- Kd (FLT3): 1 to 5 µM
- Kd (KIT): 0.5 to 2 µM
- IC50 (CSF1R [1]; [3]): 0.2 to 0.5 µM
- Kd (CSF1R [2]): 0.02 to 0.05 µM
- Kd (PDGFRβ): 0.5 to 2 µM
- IC50 (M-NFS-60 cells; [4]): > 1.5 µM

Structure (SMILES): O[C@@H]1CCCC[C@H]1Nc1nc2ccc(Cn3cnc4ncccc43)cc2s1 [Example 5, (1R,2R)-2-((6-((1H-imidazo[4,5-b]pyridin-1-yl)methyl)benzo[d]thiazol-2-yl)amino)cyclohexanol]
- Kd (FLT3): > 5 µM
- Kd (KIT): > 2 µM
- IC50 (CSF1R [1]; [3]): > 0.5 µM
- Kd (CSF1R [2]): > 0.05 µM
- Kd (PDGFRβ): > 2 µM
- IC50 (M-NFS-60 cells; [4]): > 1.5 µM

Structure (SMILES): COc1cc2ncn(Cc3ccc4nc(NCC5CCCCC5)sc4c3)c2cc1OC [Example 28, N-(cyclohexylmethyl)-6-((5,6-dimethoxy-1H-benzo[d]imidazol-1-yl)methyl)benzo[d]thiazol-2-amine]
- Kd (FLT3): ≤ 0.2 µM
- Kd (KIT): ≤ 0.1 µM
- IC50 (CSF1R [1]; [3]): 0.05 to 0.2 µM
- Kd (CSF1R [2]): 0.005 to 0.02 µM
- Kd (PDGFRβ): ≤ 0.05 µM
- IC50 (M-NFS-60 cells; [4]): 0.05 to 0.4 µM

Structure (SMILES): CN(C)C(=O)c1cnc2c(c1)ncn2Cc1ccc2nc(N[C@@H]3CCCC[C@H]3O)sc2c1 [Example 92, 3-((2-(((1R,2R)-2-hydroxycyclohexyl)amino)benzo[d]thiazol-6-yl)methyl)-N,N-dimethyl-3H-imidazo[4,5-b]pyridine-6-carboxamide]
- Kd (FLT3): 1 to 5 µM
- Kd (KIT): ≤ 0.1 µM
- IC50 (CSF1R [1]; [3]): 0.05 to 0.2 µM
- Kd (CSF1R [2]): 0.005 to 0.02 µM
- Kd (PDGFRβ): ≤ 0.05 µM
- IC50 (M-NFS-60 cells; [4]): 0.05 to 0.4 µM

Structure (SMILES): COc1cc2ncn(Cc3ccc4nc(Nc5ccccc5)sc4c3)c2cc1OC [Example 22, 6-((5,6-dimethoxy-1H-benzo[d]imidazol-1-yl)methyl)-N-phenylbenzo[d]thiazol-2-amine]
- Kd (FLT3): 1 to 5 µM
- Kd (KIT): 0.1 to 0.5 µM
- IC50 (CSF1R [1]; [3]): 0.05 to 0.2 µM
- Kd (CSF1R [2]): 0.005 to 0.02 µM
- Kd (PDGFRβ): > 2 µM
- IC50 (M-NFS-60 cells; [4]): 0.4 to 1.5 µM

Structure (SMILES): COc1cc2ncn(Cc3ccc4nc(N[C@@H]5c6ccccc6C[C@@H]5O)sc4c3)c2cc1OC [Example 10, (1R,2S)-1-((6-((5,6-dimethoxy-1H-benzo[d]imidazol-1-yl)methyl)benzo[d]thiazol-2-yl)amino)-2,3-dihydro-1H-inden-2-ol]
- Kd (FLT3): 1 to 5 µM
- Kd (KIT): 0.5 to 2 µM
- IC50 (CSF1R [1]; [3]): 0.2 to 0.5 µM
- Kd (CSF1R [2]): 0.005 to 0.02 µM
- Kd (PDGFRβ): 0.05 to 0.5 µM
- IC50 (M-NFS-60 cells; [4]): 0.4 to 1.5 µM

Structure (SMILES): COC(c1ccc2nc(N[C@@H]3CCCC[C@H]3O)sc2c1)c1c[nH]c2ncccc12 (stereo partly drawn) [Example 12, (1R,2R)-2-((6-(methoxy(1H-pyrrolo[2,3-b]pyridin-3-yl)methyl)benzo[d]thiazol-2-yl)amino)cyclohexanol]
- Kd (FLT3): 1 to 5 µM
- Kd (KIT): > 2 µM
- IC50 (CSF1R [1]; [3]): 0.2 to 0.5 µM
- Kd (CSF1R [2]): > 0.05 µM
- Kd (PDGFRβ): > 2 µM
- IC50 (M-NFS-60 cells; [4]): > 1.5 µM
